Several values for one entry are separate records, joined by “and”; a condition that tells them apart may be missing. Equal entries are not always repeated.
Tests used:
Assay in all cases: Yeast 6x EcRE-lacZ β-galactosidase transactivation assay
Dm ΔN EcR + RXRγ + GRIP1 = target: T1, Dm ΔN EcR + RXRγ + GRIP1 (Drosophila melanogaster, UniProt P34021); type: cell-based, Drosophila melanogaster; mouse; settings: RH 5992 10 μM, 4 hours, DMSO control 0.364
T1 construct: ubiquitin (human, 76 aa) (N, cleaved yes); expressed in transfected cells
T1 sequence (P34021 221-878 limits assumed, stated change not applied): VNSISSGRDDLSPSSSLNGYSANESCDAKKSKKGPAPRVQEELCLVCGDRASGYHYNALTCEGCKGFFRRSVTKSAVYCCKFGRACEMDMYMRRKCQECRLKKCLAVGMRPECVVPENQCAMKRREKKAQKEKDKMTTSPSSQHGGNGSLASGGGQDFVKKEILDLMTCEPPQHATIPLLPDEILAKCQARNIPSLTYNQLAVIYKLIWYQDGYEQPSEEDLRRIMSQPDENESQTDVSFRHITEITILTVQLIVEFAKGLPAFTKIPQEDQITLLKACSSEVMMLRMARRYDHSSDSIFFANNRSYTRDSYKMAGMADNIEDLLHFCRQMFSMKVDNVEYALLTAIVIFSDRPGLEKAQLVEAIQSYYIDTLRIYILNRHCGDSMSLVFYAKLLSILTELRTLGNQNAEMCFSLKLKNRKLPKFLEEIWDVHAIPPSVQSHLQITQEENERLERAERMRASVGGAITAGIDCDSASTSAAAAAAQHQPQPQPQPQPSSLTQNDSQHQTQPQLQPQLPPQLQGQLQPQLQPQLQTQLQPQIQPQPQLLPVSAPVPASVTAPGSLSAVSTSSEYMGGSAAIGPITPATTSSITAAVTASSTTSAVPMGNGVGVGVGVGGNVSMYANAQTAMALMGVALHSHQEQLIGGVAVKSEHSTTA
T1 sequence (P28705 whole entry partner): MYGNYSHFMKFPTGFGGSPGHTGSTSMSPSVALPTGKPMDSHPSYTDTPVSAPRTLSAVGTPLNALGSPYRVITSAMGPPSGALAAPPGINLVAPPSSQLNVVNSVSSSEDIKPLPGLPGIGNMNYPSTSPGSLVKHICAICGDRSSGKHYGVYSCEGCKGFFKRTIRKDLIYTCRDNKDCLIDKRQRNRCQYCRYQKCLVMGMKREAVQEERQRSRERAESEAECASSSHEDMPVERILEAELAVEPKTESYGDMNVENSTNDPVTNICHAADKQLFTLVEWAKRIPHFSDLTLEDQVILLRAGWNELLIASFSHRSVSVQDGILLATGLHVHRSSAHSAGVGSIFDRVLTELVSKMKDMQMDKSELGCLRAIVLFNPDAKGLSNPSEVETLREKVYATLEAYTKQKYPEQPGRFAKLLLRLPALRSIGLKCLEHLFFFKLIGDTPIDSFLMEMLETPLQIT
T1 sequence (Q61026 322-1121 partner limits assumed): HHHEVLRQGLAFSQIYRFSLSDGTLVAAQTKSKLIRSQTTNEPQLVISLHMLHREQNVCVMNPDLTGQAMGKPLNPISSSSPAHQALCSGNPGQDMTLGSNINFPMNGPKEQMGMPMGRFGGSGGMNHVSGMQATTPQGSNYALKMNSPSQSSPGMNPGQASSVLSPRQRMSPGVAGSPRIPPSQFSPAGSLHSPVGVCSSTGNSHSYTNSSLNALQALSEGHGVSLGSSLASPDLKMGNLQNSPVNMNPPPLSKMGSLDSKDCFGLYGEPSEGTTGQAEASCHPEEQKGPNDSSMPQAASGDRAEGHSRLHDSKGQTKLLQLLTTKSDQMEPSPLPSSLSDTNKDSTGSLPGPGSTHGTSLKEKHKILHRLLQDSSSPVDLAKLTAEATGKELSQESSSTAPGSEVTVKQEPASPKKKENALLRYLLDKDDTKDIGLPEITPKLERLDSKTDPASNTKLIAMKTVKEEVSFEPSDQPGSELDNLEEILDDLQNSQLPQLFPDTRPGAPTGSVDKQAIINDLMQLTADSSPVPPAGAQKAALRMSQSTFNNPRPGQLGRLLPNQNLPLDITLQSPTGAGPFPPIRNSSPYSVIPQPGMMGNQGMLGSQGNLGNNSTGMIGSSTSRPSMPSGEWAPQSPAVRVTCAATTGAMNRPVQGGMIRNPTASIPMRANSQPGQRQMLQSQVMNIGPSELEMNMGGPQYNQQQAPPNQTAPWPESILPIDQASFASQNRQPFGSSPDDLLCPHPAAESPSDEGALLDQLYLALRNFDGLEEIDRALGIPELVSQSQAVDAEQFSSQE
Protocol: (§1) The human RXR α (Genbank accession number X52773), mouse RXR β (Genbank accession number X66224) or mouse RXR γ (Genebank accession number X66225) subtypes were expressed in yeast-E. coli multicopy 2μ expression plasmids under regulation of CUP1 promoter with the LEU2 selective marker (1).
Briefly, yeast cells are cultured in 5 mL of YPD liquid medium overnight at 30° C. The cell culture was diluted 1:20 in YPD media and further grown until cell density reached an O.D of 0.6. at OD600. The cells were pelleted by centrifugation and washed with 10 mL of TE+0.1M lithium acetate. Cells are then resuspended in 10 mL TE+0.1M lithium acetate and incubated at 30° C. for 1 hour. Cells are collected and resuspended in 0.5 mL of TE+ 0.1M lithium acetate. […]
Using the transformation method set forth above, yeast were co-transformed with a reporter gene as shown in FIG. 2 and the expression vector encoding the full-length D. melanogaster ecdysone receptor, DmEcR (FIG. 3A) in the presence or absence of the Dm EcR heterodimer partner, DmUSP (FIG. 4A). […] As the N-terminal portion of the Dm EcR receptor is reported to play a role in ligand independent transactivation, an expression vector containing an N-terminal deletion in the EcR was constructed (see FIG. 3B) and assessed in the β-galactosidase assays described above. […]

[1] = target: T2, Cf ΔA/B EcR + Cf ΔA/B USP + GRIP1 (Choristoneura fumiferana, UniProt O77240); type: cell-based; settings: RH 5992 10 μM, 4 hours, DMSO control 0.200
T2 construct: human ubiquitin (76 aa) (N, cleaved yes); expressed in transfected cells; host or cells: yeast (Saccharomyces cerevisiae)
T2 sequence (O77240 entry or part of it, stated change not applied): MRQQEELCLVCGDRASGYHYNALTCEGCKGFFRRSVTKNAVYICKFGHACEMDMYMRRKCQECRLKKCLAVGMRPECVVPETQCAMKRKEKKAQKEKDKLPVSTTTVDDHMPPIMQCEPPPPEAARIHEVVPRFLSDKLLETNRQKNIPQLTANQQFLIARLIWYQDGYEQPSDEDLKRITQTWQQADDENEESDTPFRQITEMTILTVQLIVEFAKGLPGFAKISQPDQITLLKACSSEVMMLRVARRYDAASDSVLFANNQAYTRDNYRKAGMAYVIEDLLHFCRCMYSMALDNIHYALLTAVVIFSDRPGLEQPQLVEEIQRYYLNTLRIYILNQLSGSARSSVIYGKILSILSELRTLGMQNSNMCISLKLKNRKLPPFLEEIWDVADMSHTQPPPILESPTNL
T2 sequence (O76202 with tags, fused parts or gaps partner): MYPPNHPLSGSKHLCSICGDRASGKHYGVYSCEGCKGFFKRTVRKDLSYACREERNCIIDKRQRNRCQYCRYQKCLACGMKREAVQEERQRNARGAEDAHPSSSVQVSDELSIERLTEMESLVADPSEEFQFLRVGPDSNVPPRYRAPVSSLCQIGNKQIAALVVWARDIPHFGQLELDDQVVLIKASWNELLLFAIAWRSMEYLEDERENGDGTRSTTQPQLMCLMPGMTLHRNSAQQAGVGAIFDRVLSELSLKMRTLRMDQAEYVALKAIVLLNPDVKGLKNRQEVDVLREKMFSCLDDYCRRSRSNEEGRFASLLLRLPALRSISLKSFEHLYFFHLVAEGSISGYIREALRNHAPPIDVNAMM
Protocol: (§2) Briefly, yeast cells are cultured in 5 mL of YPD liquid medium overnight at 30° C. The cell culture was diluted 1:20 in YPD media and further grown until cell density reached an O.D of 0.6. at OD600. The cells were pelleted by centrifugation and washed with 10 mL of TE+0.1M lithium acetate. Cells are then resuspended in 10 mL TE+0.1M lithium acetate and incubated at 30° C. for 1 hour. Cells are collected and resuspended in 0.5 mL of TE+ 0.1M lithium acetate. Aliquots of cells (50 μL), were incubated for 15 minutes at 30° C. with 1–2 μg plasmid DNA in the presence of 5 μg of denatured salmon sperm DNA as DNA carrier. In the case of co-transformation, the indicated plasmids were added simultaneously. 50% polyethyleneglycol of molecular weight 4000, diluted in TE, was added to a final concentration of 35%. DMSO was added to the transformation solution simultaneously to a final concentration 3%. The samples were mixed well by vortexing and incubated for an additional 30 minutes at 30° C. The cell mixture is then heated for 15 minutes at 42° C. Cells were then collected and plated onto appropriate yeast selective media. Transformants of 4 plasmids are selected on the complete media without tryptophan, uracil, leucine and histidine.
The yeast cells grown overnight in selective liquid media at 30° C. were diluted in prewarmed liquid selective media to 0.1 at OD600 (ODculture). […]

[2] = target: T3, Cf ΔA/B EcR + RXR α + GRIP1 (Choristoneura fumiferana, UniProt O77240); type: cell-based, Choristoneura fumiferana; human; settings: RH 5992 10 μM, 4 hours, DMSO control 0.270
T3 construct: human ubiquitin (76 aa) (N, cleaved yes); expressed in transfected cells; host or cells: yeast (Saccharomyces cerevisiae)
T3 sequence (O77240 entry or part of it, stated change not applied): as the sequence (O77240 entry or part of it, stated change not applied) above
T3 sequence (P19793 whole entry partner): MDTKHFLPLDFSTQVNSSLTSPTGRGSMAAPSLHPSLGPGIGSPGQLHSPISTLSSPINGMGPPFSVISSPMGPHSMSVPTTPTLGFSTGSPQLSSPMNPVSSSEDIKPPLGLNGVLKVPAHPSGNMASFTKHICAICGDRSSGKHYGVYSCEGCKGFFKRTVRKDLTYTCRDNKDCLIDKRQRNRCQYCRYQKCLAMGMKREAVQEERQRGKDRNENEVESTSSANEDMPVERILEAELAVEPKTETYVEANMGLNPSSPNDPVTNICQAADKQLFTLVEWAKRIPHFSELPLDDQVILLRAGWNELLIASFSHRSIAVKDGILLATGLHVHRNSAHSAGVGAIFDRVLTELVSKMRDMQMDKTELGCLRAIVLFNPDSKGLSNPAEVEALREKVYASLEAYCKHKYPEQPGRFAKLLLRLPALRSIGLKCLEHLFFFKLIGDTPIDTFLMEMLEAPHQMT
Protocol: as §1
as §2, with “Cells were then collected and plated onto appropriate yeast selective media. Transformants of 4 plasmids are selected on the complete media without tryptophan, uracil, leucine and histidine.” left out

Compound: CCc1ccc(C(=O)NN(C(=O)c2cc(C)cc(C)c2)C(C)(C)C)cc1 [RH 5992, tebufenozide]
- β-galactosidase activity (Dm ΔN EcR + RXRγ + GRIP1): 1.283
- β-galactosidase activity [1]: 2.500 and 3.000
- β-galactosidase activity [2]: 2.063

Reference: patent US7037656B2, “Methods and compositions for identifying ligands for nuclear receptors” (priority 2000, dated 2006)
